Laboratory results published in ChEMBL document CHEMBL1149209, “Synthesis and structure-activity relationship of 2-(aminoalkyl)-3,3a,8,12b-tetrahydro-2H-dibenzocyclohepta[1,2-b]furan derivatives: a novel series of 5-HT(2A/2C) receptor antagonists” (Bioorg Med Chem Lett, 2004).

Key:
[1] = molecular target: T1, 5-hydroxytryptamine receptor 2C (Homo sapiens, UniProt P28335); test: Ability to displace [3H]- mesulergine from human cloned 5-hydroxytryptamine 2C receptor expressed in CHO cells; format: cell-based
T1 sequence (P28335 whole entry): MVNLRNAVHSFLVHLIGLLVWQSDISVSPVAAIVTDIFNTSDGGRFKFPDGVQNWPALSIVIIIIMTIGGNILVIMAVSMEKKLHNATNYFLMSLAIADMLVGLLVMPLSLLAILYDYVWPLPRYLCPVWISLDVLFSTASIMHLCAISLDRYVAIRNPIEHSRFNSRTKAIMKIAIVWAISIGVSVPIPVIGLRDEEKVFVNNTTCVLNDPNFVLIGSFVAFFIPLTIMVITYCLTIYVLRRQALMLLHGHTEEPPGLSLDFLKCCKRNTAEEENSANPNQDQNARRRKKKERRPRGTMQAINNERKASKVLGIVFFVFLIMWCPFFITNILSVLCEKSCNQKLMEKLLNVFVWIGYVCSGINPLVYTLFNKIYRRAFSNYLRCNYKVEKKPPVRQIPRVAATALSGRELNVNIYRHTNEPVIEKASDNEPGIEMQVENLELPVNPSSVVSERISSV

[2] = molecular target: Histamine H1 receptor (Homo sapiens, UniProt P35367); test: Ability to displace [3H]pyrilamine from human cloned histamine H1 receptor expressed in CHO cells; format: cell-based
Histamine H1 receptor, sequence (P35367 whole entry): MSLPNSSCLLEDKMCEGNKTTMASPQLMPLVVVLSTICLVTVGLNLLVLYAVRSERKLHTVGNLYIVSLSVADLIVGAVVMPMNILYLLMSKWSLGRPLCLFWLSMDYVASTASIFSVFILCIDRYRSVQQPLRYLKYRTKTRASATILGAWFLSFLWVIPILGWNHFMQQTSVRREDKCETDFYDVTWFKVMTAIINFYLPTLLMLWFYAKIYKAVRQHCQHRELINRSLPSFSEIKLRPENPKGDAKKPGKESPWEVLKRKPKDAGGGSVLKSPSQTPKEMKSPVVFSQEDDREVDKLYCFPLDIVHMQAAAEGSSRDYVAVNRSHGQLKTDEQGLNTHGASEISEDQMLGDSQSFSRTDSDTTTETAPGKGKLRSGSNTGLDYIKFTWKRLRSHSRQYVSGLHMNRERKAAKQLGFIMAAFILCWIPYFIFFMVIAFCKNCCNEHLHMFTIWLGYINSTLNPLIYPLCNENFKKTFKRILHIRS

[3] = molecular target: 5-hydroxytryptamine receptor 2A (Homo sapiens, UniProt P28223); test: Ability to displace [125I]R91150 from human cloned 5-hydroxytryptamine 2A receptor expressed in L929 cells; format: cell-based
5-hydroxytryptamine receptor 2A, sequence (P28223 whole entry): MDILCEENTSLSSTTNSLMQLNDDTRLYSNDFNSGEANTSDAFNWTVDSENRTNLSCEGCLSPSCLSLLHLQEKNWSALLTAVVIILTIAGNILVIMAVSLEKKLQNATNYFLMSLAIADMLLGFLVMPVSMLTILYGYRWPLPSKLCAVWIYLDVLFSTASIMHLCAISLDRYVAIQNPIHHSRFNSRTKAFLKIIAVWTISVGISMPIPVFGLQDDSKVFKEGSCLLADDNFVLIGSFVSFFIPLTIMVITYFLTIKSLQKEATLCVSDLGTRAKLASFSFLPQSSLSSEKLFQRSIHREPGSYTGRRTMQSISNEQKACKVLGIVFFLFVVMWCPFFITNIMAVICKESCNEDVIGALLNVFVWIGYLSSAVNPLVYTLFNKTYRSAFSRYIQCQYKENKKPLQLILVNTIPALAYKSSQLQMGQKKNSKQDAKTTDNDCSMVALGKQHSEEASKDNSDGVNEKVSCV

[4] = tested on: Rattus norvegicus; test: Effective dose required for antagonistic activity in mCPP challenge test in male wistar rats after subcutaneous administration; format: functional; conditions: sc

SMILES | Ki [1] | Ki [2] | Ki [3] | ED50 [4]
c1ccc(C2CCN(CC3C[C@@H]4c5ccccc5Cc5ccccc5[C@H]4O3)CC2)cc1 (stereo partly specified) | 42.7 nM | 29.7 nM | 1090 nM | 
Clc1cccc(N2CCN(CC3C[C@@H]4c5ccccc5Cc5ccccc5[C@H]4O3)CC2)c1 (stereo partly specified) | 107 nM | 471 nM | 56 nM | 
CN1CCN(CC2C[C@@H]3c4ccccc4Sc4ccccc4[C@H]3O2)CC1 (stereo partly specified) | 120 nM | 1.2 nM | 17.3 nM | 
CN1CCN(CC2C[C@@H]3c4ccccc4Cc4ccccc4[C@H]3O2)CC1 (stereo partly specified) | 677 nM | 3 nM | 433 nM | 
CN(C)CC1C[C@H]2c3ccccc3Cc3ccccc3[C@H]2O1 (stereo partly specified) | 166 nM | 27 nM | 102 nM | 
OCCN1CCN(CC2C[C@@H]3c4ccccc4Cc4ccccc4[C@H]3O2)CC1 (stereo partly specified) | 170 nM | 3.7 nM | 86.5 nM | 
CN(C)CC1C[C@@H]2c3ccccc3COc3ccccc3[C@H]2O1 (stereo partly specified) | 124 nM | 20.6 nM | 1060 nM | 
CN(C)CC1C[C@H]2c3ccccc3Oc3ccccc3[C@H]2O1 (stereo partly specified) | 183 nM | 32.6 nM | 92.6 nM | 
c1ccc(C2CCN(CC3C[C@@H]4c5ccccc5Sc5ccccc5[C@H]4O3)CC2)cc1 (stereo partly specified) | 239 nM | 47.1 nM | 68.7 nM | 

Compounds with a lower Ki [1], results first:

Ki [1] | Ki [2] | Ki [3] | SMILES | ED50 [4]
27 nM | 2.36 nM | 433 nM | c1ccc2c(c1)Cc1ccccc1[C@H]1OC(CN3CCOCC3)C[C@H]21 (stereo partly specified) | 
0.93 nM | 0.54 nM | 2.5 nM | CN(C)C[C@H]1C[C@@H]2c3ccccc3Cc3ccccc3[C@H]2O1 | 0.04 mg/kg
12.9 nM | 6 nM | 80.7 nM | CN(C)CC1C[C@@H]2c3ccccc3N(C)c3ccccc3[C@H]2O1 (stereo partly specified) | 
17 nM | 1.9 nM | 433 nM | O=C(c1ccc(F)cc1)C1CCN(CC2C[C@@H]3c4ccccc4Cc4ccccc4[C@H]3O2)CC1 (stereo partly specified) | 
1 nM | 0.64 nM | 2.5 nM | CN(C)C[C@@H]1C[C@@H]2c3ccccc3Cc3ccccc3N2O1 | 0.04 mg/kg
15.9 nM | 3.5 nM | 74.1 nM | CNC[C@@H]1CC2c3ccccc3Cc3ccccc3C2O1 (single isomer, unassigned) | 2.2 mg/kg
32.5 nM | 9.6 nM | 90.5 nM | CN(C)CC1C[C@@H]2c3ccccc3OCc3ccccc3[C@H]2O1 (stereo partly specified) | 
31 nM | 14 nM | 37 nM | CN(C)CC1C[C@@H]2c3ccccc3Oc3ccccc3[C@H]2O1 (stereo partly specified) | 
24.7 nM | 4.3 nM | 30.7 nM | CN(C)CC1C[C@@H]2c3ccccc3Sc3ccccc3[C@H]2O1 (stereo partly specified) | 
3.25 nM | 0.63 nM | 19.6 nM | CN(C)C[C@@H]1C[C@@H]2c3ccccc3Cc3ccccc3[C@H]2O1 | 0.06 mg/kg
28 nM | 3.74 nM | 104 nM | CN(C)C[C@@H]1C[C@H]2c3ccccc3Cc3ccccc3[C@@H]2O1 | 1.26 mg/kg
9.7 nM | 9.3 nM | 48.6 nM | CNCC1C[C@@H]2c3ccccc3Cc3ccccc3[C@H]2O1 (stereo partly specified) | 
6.7 nM | 0.7 nM | 21.7 nM | CN(C)CC1C[C@@H]2c3ccccc3Cc3ccccc3[C@H]2O1 (stereo partly specified) | 
